Experimental findings from ChEMBL document CHEMBL1201862, “PubChem BioAssay data set” (2004) are described below.

Each structure is given as a SMILES string.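 Step 1: Grow cells in 96-well plates. Step 2: Expose to compound for 48 hours at 5 concentrations. Step 3: Interpolate endpoints linearly; if unreached, use highest concentration. GI50 is the concentration that inhibits growth by half.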 Calls of active or inactive are those of the source. Rule as the data show it: active = GI50 up to about 1.1 µM and inactive = higher. Where a SMILES comes first, the peptide text is derived from it.

Some test systems named below: TK-10; SNB-19; CAKI-1; MOLT-4; KM12; OVCAR-4; COLO 205; NCI-H522; U-251; UO-31; HCT-15; LOX IMVI; K562; SR; UACC-257; A498; RPMI-8226; HL-60; MCF7.
Holding throughout (test): NCI-60 cell line screen, 48 h

As to `COc1cccc(/C=C2\CCC(C)(CN(C)C)C2=O)c1` (stereo not given), the GI50 was > 100 µM (inactive) in the assay with TK-10; 34.4 µM (inactive) with SNB-19; 29.4 µM (inactive) in the assay on CAKI-1; 48.6 µM (inactive) with MOLT-4; 92.7 µM (inactive) with KM12; 98.4 µM (inactive) in the assay with OVCAR-4. In addition, the GI50 in the assay on COLO 205 was 60.1 µM (inactive); in the assay with NCI-H522, 30.7 µM (inactive); in the assay with U-251 it was > 100 µM (inactive); with UO-31 it was 81.5 µM (inactive); in the assay with HCT-15, 35.6 µM; in the assay on LOX IMVI it was > 100 µM (inactive). In addition, the GI50 with K562 was 43.7 µM (inactive); in the assay on SR it was 74.3 µM (inactive); in the assay with UACC-257 it was > 100 µM (inactive); in the assay with A498 it was > 100 µM (inactive); in the assay with RPMI-8226 it was 28.4 µM (inactive).
In the case of `CN(C)CC1CCC/C1=N/OC(=O)c1ccccc1` (stereo not given), the GI50 with TK-10, with CAKI-1, in the assay with MOLT-4, with OVCAR-4, in the assay with COLO 205 and with NCI-H522 was > 100 µM (inactive) in each case. The GI50 is > 100 µM (inactive) in the assay with U-251; > 100 µM (inactive) in the assay with UO-31; above 100 µM in the assay on HCT-15; > 100 µM (inactive) with LOX IMVI; > 100 µM (inactive) in the assay on K562; > 100 µM (inactive) in the assay on SR. The GI50 in the assay with UACC-257, in the assay with A498 and in the assay with RPMI-8226 was > 100 µM (inactive) in each case.
On to `Cc1cc(Cl)ccc1NC(=O)CC1SC(Nc2ccccc2Cl)=NC1=O` (stereo not given), for which the GI50 with TK-10 was 88.5 µM (inactive); with SNB-19, 32.4 µM (inactive); in the assay with CAKI-1, 41.7 µM (inactive); with MOLT-4, 30.2 µM (inactive); with HL-60, 15.9 µM (inactive); in the assay on KM12, 33.3 µM (inactive). Also, the GI50 with OVCAR-4 is 41.3 µM (inactive); with COLO 205 it was 19.2 µM (inactive); in the assay with NCI-H522 it was 29.8 µM (inactive); with U-251 it was 26.4 µM (inactive); in the assay on UO-31 it was 35.5 µM (inactive); with HCT-15, 39.9 µM. The GI50 is 37.8 µM (inactive) in the assay with K562; 20.6 µM (inactive) in the assay with SR; 50.2 µM (inactive) in the assay on UACC-257; 65.6 µM (inactive) in the assay with A498; 23.2 µM (inactive) with RPMI-8226.
As to `O=C(CCN(C(=O)O)S(=O)(=O)c1ccc(NC(=O)c2ccccc2)cc1)Nc1ccccc1`, the GI50 was > 100 µM (inactive) in the assay with TK-10; > 100 µM (inactive) in the assay with SNB-19; > 100 µM (inactive) in the assay with CAKI-1; > 64.6 µM (inactive) in the assay on MOLT-4; > 61.8 µM (inactive) in the assay with HL-60; > 100 µM (inactive) in the assay on KM12. Moreover, the GI50 with OVCAR-4 is > 100 µM (inactive); in the assay on COLO 205, > 61.4 µM (inactive); with NCI-H522 it was > 100 µM (inactive); in the assay on U-251, > 75.7 µM (inactive); in the assay with UO-31, > 100 µM (inactive); in the assay with HCT-15, above 58.6 µM. Besides, the GI50 is > 57.7 µM (inactive) with LOX IMVI; > 59.3 µM (inactive) in the assay on K562; 15.8 µM (inactive) in the assay with SR; > 65.3 µM (inactive) with UACC-257; > 100 µM (inactive) in the assay with A498; > 64.1 µM (inactive) in the assay with RPMI-8226.
With `CC1=NN2C(c3ccc([N+](=O)[O-])cc3)=CSC2=NC(C)(C)C1`, the GI50 with TK-10, in the assay on SNB-19, in the assay on MOLT-4, in the assay with HL-60, in the assay on KM12 and in the assay with OVCAR-4 was > 100 µM (inactive) throughout. In addition, the GI50 is > 100 µM (inactive) in the assay with COLO 205; > 100 µM (inactive) in the assay with NCI-H522; > 100 µM (inactive) with U-251; 88.1 µM (inactive) in the assay with UO-31; above 100 µM with HCT-15; > 100 µM (inactive) in the assay with LOX IMVI. For the same compound, the GI50 with K562, with SR, in the assay on UACC-257, with A498 and with RPMI-8226 was > 100 µM (inactive) each time.
Take `CN(/N=N/c1[nH]cnc1C(N)=O)C1CCCCC1`: the GI50 in the assay on TK-10 was 40 µM (inactive); with SNB-19, > 100 µM (inactive); in the assay on MOLT-4, 49.1 µM (inactive); in the assay with HL-60 it was 29.5 µM (inactive); with KM12, > 100 µM (inactive); in the assay with OVCAR-4, 55.1 µM (inactive). In addition, the GI50 is > 100 µM (inactive) with COLO 205; > 100 µM (inactive) with NCI-H522; > 100 µM (inactive) in the assay with U-251; above 100 µM with HCT-15; 42.2 µM (inactive) in the assay with LOX IMVI; 30.7 µM (inactive) in the assay on SR. The GI50 was 62.1 µM (inactive) in the assay with UACC-257, > 100 µM (inactive) in the assay on A498 and 52.6 µM (inactive) with RPMI-8226.
With `CC12O[Te]34OC1(C)C(C)(O3)C2(C)O4`, the GI50 in the assay on TK-10 is 17 µM (inactive); with SNB-19 it was 14.6 µM (inactive); in the assay on CAKI-1 it was 9.71 µM (inactive); in the assay on MOLT-4, 6.47 µM (inactive); in the assay on KM12, 14.8 µM (inactive); in the assay with OVCAR-4, 14.6 µM (inactive). Besides, the GI50 in the assay on COLO 205 was 16.9 µM (inactive); with NCI-H522 it was 11.8 µM (inactive); in the assay with U-251 it was 3.77 µM (inactive); in the assay with UO-31 it was 11.8 µM (inactive); in the assay on HCT-15 it was 17.4 µM; in the assay with LOX IMVI it was 3.56 µM (inactive). Besides, the GI50 was 7.66 µM (inactive) with SR, 17.4 µM (inactive) with UACC-257 and > 8.75 µM (inactive) in the assay with A498.
`C=C1CCC2C(C)(CO)C(O)CCC2(C)C1CC(O)/C(=C/CO)C(=O)O` (stereo not given): the GI50 in the assay on TK-10, with SNB-19, in the assay on CAKI-1, in the assay with MOLT-4, in the assay with HL-60 and with KM12 was > 100 µM (inactive) in each case. Besides, the GI50 in the assay on OVCAR-4 was > 100 µM (inactive); in the assay on COLO 205, > 100 µM (inactive); in the assay on NCI-H522 it was > 100 µM (inactive); with U-251 it was > 100 µM (inactive); in the assay with UO-31, > 100 µM (inactive); in the assay with HCT-15, above 100 µM. Also, the GI50 in the assay with LOX IMVI, in the assay on K562, in the assay on SR, in the assay with UACC-257, in the assay on A498 and with RPMI-8226 was > 100 µM (inactive) each time.
Consider `CC1=C(C(=O)Nc2ccccc2)C(c2ccccc2Cl)C(C(=O)Nc2ccccc2)=C(C)N1`, for which the GI50 is 38.7 µM (inactive) in the assay with TK-10; 24.8 µM (inactive) with SNB-19; 27.9 µM (inactive) in the assay on CAKI-1; 17.4 µM (inactive) in the assay with MOLT-4; < 0.01 µM (active) with HL-60; 36.4 µM (inactive) in the assay on OVCAR-4. Also, the GI50 is 19.4 µM (inactive) in the assay on COLO 205; 19.6 µM (inactive) in the assay on NCI-H522; 19.4 µM (inactive) with U-251; 35.6 µM (inactive) with UO-31; 20 µM with HCT-15; 18.6 µM (inactive) in the assay with LOX IMVI. Also, the GI50 was 38.6 µM (inactive) in the assay with K562; 25.8 µM (inactive) with SR; 19.4 µM (inactive) in the assay on UACC-257; 27.8 µM (inactive) in the assay with A498; 19.4 µM (inactive) in the assay with RPMI-8226.
Turning to `O=C1C(=O)N(c2ccc(Cl)c(Cl)c2)C(=O)C(=O)C1c1nc2ccccc2s1`, the GI50 in the assay on TK-10 is > 100 µM (inactive); with SNB-19, 44 µM (inactive); in the assay with CAKI-1, > 100 µM (inactive); in the assay on MOLT-4, > 100 µM (inactive); in the assay on OVCAR-4, > 100 µM (inactive); in the assay on COLO 205 it was > 100 µM (inactive). Moreover, the GI50 in the assay on NCI-H522 was > 100 µM (inactive); with U-251, > 100 µM (inactive); with UO-31, > 100 µM (inactive); in the assay with HCT-15, 87.1 µM; in the assay on LOX IMVI it was > 100 µM (inactive); in the assay with SR, > 100 µM (inactive). In addition, the GI50 with UACC-257, with A498 and with RPMI-8226 was > 100 µM (inactive) throughout.
As for `O=C(NC/C=C/CO)c1ccccc1`, the GI50 in the assay on SNB-19, with MOLT-4, with HL-60, in the assay with KM12, in the assay on OVCAR-4 and in the assay on COLO 205 was > 100 µM (inactive) throughout. Further, the GI50 in the assay on NCI-H522 was > 100 µM (inactive); in the assay with U-251, > 100 µM (inactive); in the assay with UO-31 it was > 100 µM (inactive); in the assay on HCT-15, above 100 µM; in the assay on LOX IMVI, > 100 µM (inactive); in the assay with K562, > 100 µM (inactive). Also, the GI50 in the assay with UACC-257, in the assay on A498, in the assay with MCF7 and in the assay on RPMI-8226 was > 100 µM (inactive) each time.
With `CC1NC(=O)CNC(=O)CNC(=O)C(Cc2ccc(O)cc2)NC(=O)C(C(C)C)NC(=O)C(C)NC1=O` (stereo not given) (cyclo(GGAAVY); configuration not given here), the GI50 in the assay on SNB-19 was > 100 µM (inactive); with CAKI-1 it was > 100 µM (inactive); with MOLT-4, > 100 µM (inactive); in the assay with HL-60, > 100 µM (inactive); with KM12, > 100 µM (inactive); in the assay on OVCAR-4, 10.7 µM (inactive). For the same compound, the GI50 in the assay with COLO 205 is > 100 µM (inactive); in the assay with U-251, > 100 µM (inactive); in the assay on UO-31, > 100 µM (inactive); in the assay on HCT-15, above 100 µM; in the assay with LOX IMVI, > 100 µM (inactive); in the assay on UACC-257, > 100 µM (inactive). The GI50 with A498, in the assay with MCF7 and in the assay with RPMI-8226 was > 100 µM (inactive) throughout.
